Assay results published in patent publication US11174232B2, “Substituted heterocyclyl derivatives as CDK inhibitors” (Aurigene Discovery Technologies Limited, priority 2015, dated 2021).

Target: CDK7/CycH/MNAT1 (Homo sapiens (Human), UniProt P50613)
Assay: Biochemical Assay for CDK7 (TR-FRET kinase assay)
Details: 60 min pre-incubation with kinase, 1 mM ATP; for inhibition at 10 µM / % inhibition @ 10 μM: 10 μM compound
Description: Biochemical Assay for CDK7:
The ability of compounds to inhibit CDK7 kinase activity was tested in a TR-FRET assay using 5 nM of CDK7/CycH/MNAT1 obtained from Invitrogen, USA. Test compounds were pre-incubated with the kinase at room temperature for 60 min. After the incubation, substrate mix [100 nM Ultra-light MBP (Perkin Elmer, USA) and 1 mM ATP (Sigma)] was added. The above reaction was stopped by the addition of 40 mM EDTA after 60 minutes of kinase reaction. 1 nM Eu-labelled antiphospho-MBP antibody [Perkin Elmer, USA] was added, mixed well and the fluorescence emission at 615 nm and 665 nm [excitation at 340 nm] was measured. The final DMSO concentration in the assay was 1%. For IC50 determination, appropriate concentrations were made by ⅓^rd serial dilutions of 10 mM DMSO stock solution of test compound. All the fluorescence measurements were made in a Victor 3 Multilabel Counter [Perkin Elmer, USA]. The IC50 was determined by fitting the dose response data to sigmoidal curve fitting equation using GraphPad Prism software V5. To identify compounds that inhibit CDK7 irreversibly, time depended inhibition studies were carried by pre-incubating compound with the enzyme at three time points (20, 60 and 180 min) and carrying out assay as described above.
The compounds were screened by the above mentioned assay procedure.

Sequence of CDK7/CycH/MNAT1 (P50613 whole entry): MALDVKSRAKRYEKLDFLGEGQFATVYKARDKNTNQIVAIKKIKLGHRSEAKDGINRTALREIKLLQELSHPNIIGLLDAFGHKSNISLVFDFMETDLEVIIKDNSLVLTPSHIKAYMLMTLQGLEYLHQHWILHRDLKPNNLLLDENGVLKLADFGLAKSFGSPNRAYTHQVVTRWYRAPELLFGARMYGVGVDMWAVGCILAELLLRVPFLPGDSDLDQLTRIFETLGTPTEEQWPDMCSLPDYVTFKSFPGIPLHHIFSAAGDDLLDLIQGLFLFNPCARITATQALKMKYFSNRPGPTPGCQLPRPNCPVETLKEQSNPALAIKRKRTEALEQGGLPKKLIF
Sequence of CDK7/CycH/MNAT1 (P51946 whole entry partner): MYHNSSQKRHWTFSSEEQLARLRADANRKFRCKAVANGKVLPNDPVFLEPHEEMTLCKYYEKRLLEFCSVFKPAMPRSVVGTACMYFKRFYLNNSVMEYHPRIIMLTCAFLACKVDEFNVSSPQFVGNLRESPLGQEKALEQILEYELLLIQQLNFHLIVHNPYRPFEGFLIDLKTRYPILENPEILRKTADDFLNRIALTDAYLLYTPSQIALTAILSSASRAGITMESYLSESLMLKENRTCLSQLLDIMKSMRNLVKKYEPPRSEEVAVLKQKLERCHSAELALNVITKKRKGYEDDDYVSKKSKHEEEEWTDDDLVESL
Sequence of CDK7/CycH/MNAT1 (P51948 whole entry partner): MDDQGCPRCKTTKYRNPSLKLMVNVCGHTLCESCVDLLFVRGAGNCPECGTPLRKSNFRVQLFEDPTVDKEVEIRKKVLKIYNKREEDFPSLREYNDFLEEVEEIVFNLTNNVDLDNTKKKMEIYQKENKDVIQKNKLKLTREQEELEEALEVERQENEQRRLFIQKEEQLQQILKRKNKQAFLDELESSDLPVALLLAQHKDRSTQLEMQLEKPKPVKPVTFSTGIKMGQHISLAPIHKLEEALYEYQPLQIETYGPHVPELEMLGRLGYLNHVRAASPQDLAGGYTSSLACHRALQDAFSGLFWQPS

SMILES | inhibition at 10 µM [%] | IC50 [nM] | % inhibition @ 10 μM [%]
C=CC(=O)Nc1ccc(-c2cc(C(C)C(=O)Nc3cc(C4CC4)[nH]n3)ccc2F)cc1F (stereo not shown) [Compound 23, N-(5′-(1-((5-cyclopropyl-1H-pyrazol-3-yl)amino)-1-oxopropan-2-yl)-2′,3-difluoro-[1,1′-biphenyl]-4-yl)acrylamide] | 98 | 25 to 100 | –
CCN(CC)C/C=C/C(=O)Nc1ccc(-c2cccc(C(C)C(=O)Nc3cc(C4CC4)[nH]n3)c2)cn1 (stereo not shown) [Compound 55, (E)-N-(5-(3-(1-((5-cyclopropyl-1H-pyrazol-3-yl)amino)-1-oxopropan-2-yl)phenyl)pyridin-2-yl)-4-(diethylamino)but-2-enamide] | 95 | < 25 | –
C=CC(=O)Nc1ccc(-c2cccc(C(C)C(=O)Nc3cc(C4CC4)[nH]n3)c2)cc1 (stereo not shown) [Compound 18, N-(3′-(1-((5-cyclopropyl-1H-pyrazol-3-yl)amino)-1-oxopropan-2-yl)-[1,1′-biphenyl]-4-yl)acrylamide] | 95 | > 100 | –
CC(C(=O)Nc1cc(C2CCC2)[nH]n1)c1cccc(-c2ccc(NC(=O)/C=C/CN(C)C)cc2)c1 (stereo not shown) [Compound 15, (E)-N-(3′-(1-((5-cyclobutyl-1H-pyrazol-3-yl)amino)-1-oxopropan-2-yl)-[1,1′-biphenyl]-4-yl)-4-(dimethylamino)but-2-enamide] | 93 | < 25 | –
CC(C(=O)Nc1cc(C2CC2)[nH]n1)c1cccc(-c2ccc(NC(=O)/C=C/CN(C)C)c(F)c2)c1 (stereo not shown) [Compound 14, (E)-N-(3′-(1-((5-cyclopropyl-1H-pyrazol-3-yl)amino)-1-oxopropan-2-yl)-3-fluoro-[1,1′-biphenyl]-4-yl)-4-(dimethylamino)but-2-enamide] | 95 | > 100 | –
CC(C)C(C(=O)Nc1cc(C2CC2)[nH]n1)c1cccc(-c2ccc(NC(=O)/C=C/CN(C)C)cn2)c1 (stereo not shown) [Compound 36, (E)-N-(6-(3-(1-((5-cyclopropyl-1H-pyrazol-3-yl)amino)-3-methyl-1-oxobutan-2-yl)phenyl)pyridin-3-yl)-4-(dimethylamino)but-2-enamide] | 98 | < 25 | –
C=CC(=O)Nc1ccc(-c2cccc(C(CC)C(=O)Nc3cc(C4CC4)[nH]n3)c2)cc1F (stereo not shown) [Compound 27, 2-(4′-acrylamido-3′-fluoro-[1,1′-biphenyl]-3-yl)-N-(5-cyclopropyl-1H-pyrazol-3-yl)butanamide] | 98 | < 25 | –
CC(C(=O)Nc1cc(C2CC2)[nH]n1)c1cccc(-c2ccc(NC(=O)/C=C/CN3CC[C@H](F)C3)nc2)c1 (stereo partly drawn) [Compound 46, (E)-N-(5-(3-(1-((5-cyclopropyl-1H-pyrazol-3-yl)amino)-1-oxopropan-2-yl)phenyl)pyridin-2-yl)-4-((S)-3-fluoropyrrolidin-1-yl)but-2-enamide] | 95 | < 25 | –
CCc1cc(NC(=O)C(C)c2cccc(-c3ccc(NC(=O)/C=C/CN(C)C)cc3)c2)n[nH]1 (stereo not shown) [Compound 8, (E)-4-(dimethylamino)-N-(3′-(1-((5-ethyl-1H-pyrazol-3-yl)amino)-1-oxopropan-2-yl)-[1,1′-biphenyl]-4-yl)but-2-enamide] | 92 | > 100 | –
CC(C(=O)Nc1cc(C2CC2)[nH]n1)c1cccc(-c2ccc(NC(=O)/C=C/CN(C)C)cn2)c1 (stereo not shown) [Compound 16, (E)-N-(6-(3-(1-((5-cyclopropyl-1H-pyrazol-3-yl)amino)-1-oxopropan-2-yl)phenyl)pyridin-3-yl)-4-(dimethylamino)but-2-enamide] | 95 | 25 to 100 | –
CC(C(=O)Nc1cc(C2CC2)[nH]n1)c1cccc(-c2ccc3c(c2)CCN3C(=O)/C=C/CN(C)C)c1 (stereo not shown) [Compound 29, (E)-N-(5-cyclopropyl-1H-pyrazol-3-yl)-2-(3-(1-(4-(dimethylamino)but-2-enoyl)indolin-5-yl)phenyl)propanamide] | 97 | < 25 | –
C=CC(=O)Nc1ccc(-c2cccc(C(C(=O)Nc3cc(C4CC4)[nH]n3)C(C)C)c2)cc1F (stereo not shown) [Compound 25, 2-(4′-acrylamido-3′-fluoro-[1,1′-biphenyl]-3-yl)-N-(5-cyclopropyl-1H-pyrazol-3-yl)-3-methylbutanamide] | 97 | 25 to 100 | –
CC(C(=O)Nc1cc(C2CC2)[nH]n1)c1cccc(-c2ccc(NC(=O)/C=C/CN3CCCCC3)nc2)c1 (stereo not shown) [Compound 40, (E)-N-(5-(3-(1-((5-cyclopropyl-1H-pyrazol-3-yl)amino)-1-oxopropan-2-yl)phenyl)pyridin-2-yl)-4-(piperidin-1-yl)but-2-enamide] | 100 | < 25 | –
CCC(C(=O)Nc1cc(C2CC2)[nH]n1)c1cccc(-c2ccc(NC(=O)/C=C/CN(C)C)cc2)c1 (stereo not shown) [Compound 13, (E)-N-(3′-(1-((5-cyclopropyl-1H-pyrazol-3-yl)amino)-1-oxobutan-2-yl)-[1,1′-biphenyl]-4-yl)-4-(dimethylamino)but-2-enamide] | 97 | 25 to 100 | –
CC(C(=O)Nc1cc(C2CC2)[nH]n1)c1cccc(-c2ccc(NC(=O)/C=C/CN3CCCC3)nc2)c1 (single isomer, unassigned) [Compound 54, (E)-N-(5-(3-(1-((5-cyclopropyl-1H-pyrazol-3-yl)amino)-1-oxopropan-2-yl)-phenyl)pyridin-2-yl)-4-(pyrrolidin-1-yl)but-2-enamide] | – | < 25 | 78
C=CC(=O)Nc1ccc(-c2cccc(C(C)C(=O)Nc3cc(C4CC4)[nH]n3)c2)cn1 (single isomer, unassigned) [Compound 22, N-(5-(3-(1-((5-cyclopropyl-1H-pyrazol-3-yl)amino)-1-oxopropan-2-yl)phenyl)pyridin-2-yl)acrylamide] | – | < 25 | 97
CC(C)C(C(=O)Nc1cc(C2CC2)[nH]n1)c1cccc(-c2ccc(NC(=O)/C=C/CN(C)C)c(F)c2)c1 (stereo not shown) [Compound 43, (E)-N-(3′-(1-((5-cyclopropyl-1H-pyrazol-3-yl)amino)-3-methyl-1-oxobutan-2-yl)-3-fluoro-[1,1′-biphenyl]-4-yl)-4-(dimethylamino)but-2-enamide] | 99 | < 25 | –
CC(C(=O)Nc1cc(C2CC2)[nH]n1)c1cccc(-c2ccc(NC(=O)/C=C/CN(C)C)nc2)c1 (stereo not shown) [Compound 42, (E)-N-(5-(3-(1-((5-cyclopropyl-1H-pyrazol-3-yl)amino)-1-oxopropan-2-yl)phenyl)pyridin-2-yl)-4-(dimethylamino)but-2-enamide] | 98 | < 25 | –

Results, then the compound that gave them:

inhibition at 10 µM [%] | IC50 [nM] | % inhibition @ 10 μM [%] | SMILES
98 | < 25 | – | CC(C(=O)Nc1cc(C2CC2)[nH]n1)c1cccc(-c2ccc(NC(=O)/C=C/CN3CCCC(F)C3)nc2)c1 (stereo not shown) [Compound 57, (E)-N-(5-(3-(1-((5-cyclopropyl-1H-pyrazol-3-yl)amino)-1-oxopropan-2-yl)phenyl)pyridin-2-yl)-4-(3-fluoropiperidin-1-yl)but-2-enamide]
– | < 25 | 98 | COC[C@@H]1CCCN1C/C=C/C(=O)Nc1ccc(-c2cccc(C(C)C(=O)Nc3cc(C4CC4)[nH]n3)c2)cn1 (single isomer, unassigned) [Compound 72]
62 | > 100 | – | C=CC(=O)Nc1ccc(-c2cccc(C(C)C(=O)Nc3cc(C(C)(C)C)[nH]n3)c2)cc1 (stereo not shown) [Compound 88, N-(3′-(1-((5-(tert-butyl)-1H-pyrazol-3-yl)amino)-1-oxopropan-2-yl)-[1,1′-biphenyl]-4-yl)acrylamide]
81 | > 100 | – | CON(C)C/C=C/C(=O)Nc1ccc(-c2cccc(C(C)C(=O)Nc3cc(C4CC4)[nH]n3)c2)cn1 (stereo not shown) [Compound 62, (E)-N-(5-(3-(1-((5-cyclopropyl-1H-pyrazol-3-yl)amino)-1-oxopropan-2-yl)phenyl)pyridin-2-yl)-4-(methoxy(methyl)amino)but-2-enamide]
95 | 25 to 100 | – | CC(C(=O)Nc1cc(C2CC2)[nH]n1)c1cccc(-c2ccc(NC(=O)/C=C/CN3CC[C@H](F)C3)c(F)c2)c1 (stereo partly drawn) [Compound 80, (E)-N-(3′-(1-((5-cyclopropyl-1H-pyrazol-3-yl)amino)-1-oxopropan-2-yl)-3-fluoro-[1,1′-biphenyl]-4-yl)-4-((S)-3-fluoropyrrolidin-1-yl)but-2-enamide]
71 | > 100 | – | CC(C)(C(=O)Nc1cc(C2CC2)[nH]n1)c1cccc(-c2ccc(NC(=O)/C=C/CN3CCCC3)nc2)c1 [Compound 95, (E)-N-(5-(3-(1-((5-cyclopropyl-1H-pyrazol-3-yl)amino)-2-methyl-1-oxopropan-2-yl)phenyl)pyridin-2-yl)-4-(pyrrolidin-1-yl)but-2-enamide]
84 | > 100 | – | CC(C(=O)Nc1n[nH]c2ccccc12)c1cccc(-c2ccc(NC(=O)/C=C/CN(C)C)cc2)c1 (stereo not shown) [Compound 91, (E)-N-(3′-(1-((1H-indazol-3-yl)amino)-1-oxopropan-2-yl)-[1,1′-biphenyl]-4-yl)-4-(dimethylamino)but-2-enamide]
88 | > 100 | – | CC(C(=O)Nc1cc(C2CC2)[nH]n1)c1cccc(C2=CCN(C(=O)/C=C/CN(C)C)CC2)c1 (stereo not shown) [Compound 84, (E)-N-(5-cyclopropyl-1H-pyrazol-3-yl)-2-(3-(1-(4-(dimethylamino)but-2-enoyl)-1,2,3,6-tetrahydropyridin-4-yl)phenyl)propanamide]
